Legend:
Water solubility = assay type: physicochemical
From the text: The 21-hydroxy group of dexamethasone is not required for anti-inflammatory activity, and therefore is an ideal choice for conjugation to a polycation (FIG. 1A) (Schimmer et al., 1996, in The Pharmacological Basis of Therapeutics, 1459-1485, eds. Hardman and Limbird, McGraw-Hill, New York). […] Traut's reagent is selectively ring-opened by the primary amines (Hermanson, 1996, Bioconjugate Techniques, Academic Press) on spermine, forming a hydrolytically sensitive amidimide bond (Hermanson, 1996, Bioconjugate Techniques, Academic Press) between spermine and iminothiolane and a reactive thiolate anion that reacts with the α-keto mesylate on the 21 position of dexamethasone mesylate (Simmons et al., 1980, J. Org. Chem. […]), yielding an α-keto thioether linkage between the dexamethasone and iminothiolane. Dexamethasone mesylate (prepared or received from Steraloids, N.H.) or dexamethasone (Steraloids, N.H.), 2-iminothiolane (Traut's reagent) (Pierce), spermine (Sigma), and ethanol or DMSO (Aldrich) were used as received. […] For DA, FIG. 1B: Calc: C, 63.26; H, 7.35; N, 2.84. Found: C, 63.44; H, 7.27; N, 2.83.

GFP-GR = GFP-GR translocation study in BAECs; assay type: cell-based; settings: 0.01-1 μM, 60-minute treatment
Protocol: BAECs were seeded at 1×10^5/ml in 24 well plates and allowed to spread overnight. Cells were transfected with GFP-GR chimeric protein by adding 450 ng of DNA complexed with 2 ul of lipofectamine in a 200 ul volume of Optimem media growth to each well of a 24 well plate for ˜1.5 hour. The DNA-lipofectamine complex was then removed and cells placed in DMEM supplemented with 0.5% calf serum. This reduced level of calf serum was used to prevent non-specific translocation of GFP-GR receptor in response to hormones in the serum. […] Analysis of GFP-GR translocation was conducted by counting the number of cells in each field of view, which had GFP-GR nuclear localization compared to total number of cells. ˜40 cells were analyzed per condition.

[1] = system: Bovine aortic endothelial cells (BAEC); assay: Lipofection of BAEC with EGFP plasmid; assay type: cell-based; settings: unconjugated, alone

With `CC1C[C@H]2[C@@H]3CCC4=CC(=O)C=C[C@]4(C)[C@@]3(F)C(O)C[C@]2(C)[C@@]1(O)C(=O)CSCCCC(=N)NCCCNCCCCNCCCN` (some centres unmarked) [DS, N-[3-({4-[(3-aminopropyl)amino]butyl}amino)propyl]-4-[(9-fluoro-11,17-dihydroxy-16-methyl-3,20-dioxopregna-1,4-dien-21-yl)sulfanyl]butanimidamide] the solubility (Water solubility) was > 100 mg/mL and the “nuclear localization (translocation) of GFP-GR” value (from here on “nuclear localization”) (GFP-GR) was “caused nuclear localization of GFP-GR”.
For `NCCCNCCCCNCCCN` [Spermine, spermine], the “gene transfer activity (EGFP expression)” value [1] was “no detectable gene transfer activity”.
With `CCCCCCCCNCCC[C@@H](C)[C@H]1CC[C@H]2[C@@H]3[C@H](OCCCN)C[C@@H]4C[C@H](OCCCN)CC[C@]4(C)[C@H]3C[C@H](OCCCN)[C@]12C` [CSA-13] the “nuclear localization” value (GFP-GR) was “not observed”.
With “LL-37: cathelicidin peptide LL37, naturally occurring antibacterial agent (LLGDFFRKSKEKIGKEFKRIVQRIKDFLRNLVPRTES; Antibacterial peptide LL-37; UniProt P49913 134-170, looked up)” the “nuclear localization” value (GFP-GR) was “not observed”.

— US9180132B2, “Antimicrobial cationic steroids and methods of use” (The Trustees of the University of Pennsylvania, priority 2010, dated 2015)
